Experimental data taken from patent US10485235B2, “Aryloxypyrimidinyl ethers as herbicides” (FMC Corporation, priority 2015, dated 2019).

Tested on: kochia (Kochia scoparia)
Test: Test A preemergence, kochia
Assay type: in vivo
Conditions: Bassia scoparia, pre-emergence, 240 h; Preemergence, 31 g ai/ha; 0 to 100 scale (0 no effect, 100 complete control); read-out: Plant response rating, Kochia
In short: (§1)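 Plants grown in pots of loam blended with sand were treated either before emergence, via directed soil spray, or after emergence at the one- to two-leaf stage. Following about 10 days in the greenhouse, each treatment was visually compared with untreated controls and rated from 0 (no effect) to 100 (complete control).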

SMILES	pest or weed control at 31 g/ha [%]
N#Cc1cccc(Oc2ncc(F)cn2)c1OCC(F)(F)F [Compound 41]	50
N#Cc1cccc(Oc2ncc(Cl)cn2)c1OCC(F)(F)F [Compound 1]	60

Same assay, conditions: Bassia scoparia, pre-emergence, 240 h; Preemergence, 125 g ai/ha; 0 to 100 scale (0 no effect, 100 complete control); read-out: Plant response rating, Kochia

SMILES	pest or weed control at 125 g/ha [%]
N#Cc1cccc(Oc2ncc(F)cn2)c1OCC(F)(F)F [Compound 41]	100
N#Cc1cccc(Oc2ncc(Cl)cn2)c1OCC(F)(F)F [Compound 1]	100

Tested on: ragweed (common ragweed, Ambrosia elatior)
Test: Test A postemergence, ragweed
Assay type: in vivo
Conditions: Ambrosia artemisiifolia, post-emergence, 240 h; 31 g ai/ha, postemergence; 0 to 100 scale, 0 is no effect, 100 is complete control; approximately 10 days; read-out: Plant response rating, Ragweed
In short: as §1

SMILES	pest or weed control at 31 g/ha [%]
N#Cc1cccc(Oc2ncc(F)cn2)c1OCC(F)(F)F [Compound 41]	10
N#Cc1cccc(Oc2ncc(Cl)cn2)c1OCC(F)(F)F [Compound 1]	10

Same assay, conditions: Ambrosia artemisiifolia, post-emergence, 240 h; 125 g ai/ha, postemergence; 0 to 100 scale, 0 is no effect, 100 is complete control; approximately 10 days; read-out: Plant response rating, Ragweed

SMILES	pest or weed control at 125 g/ha [%]
N#Cc1cccc(Oc2ncc(F)cn2)c1OCC(F)(F)F [Compound 41]	10
N#Cc1cccc(Oc2ncc(Cl)cn2)c1OCC(F)(F)F [Compound 1]	10

Tested on: pigweed (Amaranthus retroflexus)
Test: Test A preemergence, pigweed
Assay type: in vivo
Conditions: Amaranthus retroflexus, pre-emergence, 240 h; Preemergence, 31 g ai/ha; 0 to 100 scale (0 no effect, 100 complete control); read-out: Plant response rating, Pigweed
In short: as §1

SMILES	pest or weed control at 31 g/ha [%]
N#Cc1cccc(Oc2ncc(F)cn2)c1OCC(F)(F)F [Compound 41]	100
N#Cc1cccc(Oc2ncc(Cl)cn2)c1OCC(F)(F)F [Compound 1]	100

Same assay, conditions: Amaranthus retroflexus, pre-emergence, 240 h; Preemergence, 125 g ai/ha; 0 to 100 scale (0 no effect, 100 complete control); read-out: Plant response rating, Pigweed

SMILES	pest or weed control at 125 g/ha [%]
N#Cc1cccc(Oc2ncc(F)cn2)c1OCC(F)(F)F [Compound 41]	100
N#Cc1cccc(Oc2ncc(Cl)cn2)c1OCC(F)(F)F [Compound 1]	100

Tested on: pigweed (Amaranthus retroflexus)
Test: Test A postemergence, pigweed
Assay type: in vivo
Conditions: Amaranthus retroflexus, post-emergence, 240 h; 31 g ai/ha, postemergence; 0 to 100 scale, 0 is no effect, 100 is complete control; approximately 10 days; read-out: Plant response rating, Pigweed
In short: as §1

SMILES	pest or weed control at 31 g/ha [%]
N#Cc1cccc(Oc2ncc(F)cn2)c1OCC(F)(F)F [Compound 41]	30
N#Cc1cccc(Oc2ncc(Cl)cn2)c1OCC(F)(F)F [Compound 1]	60

Same assay, conditions: Amaranthus retroflexus, post-emergence, 240 h; 125 g ai/ha, postemergence; 0 to 100 scale, 0 is no effect, 100 is complete control; approximately 10 days; read-out: Plant response rating, Pigweed

SMILES	pest or weed control at 125 g/ha [%]
N#Cc1cccc(Oc2ncc(F)cn2)c1OCC(F)(F)F [Compound 41]	70
N#Cc1cccc(Oc2ncc(Cl)cn2)c1OCC(F)(F)F [Compound 1]	90

Tested on: ragweed (common ragweed, Ambrosia elatior)
Test: Test A preemergence, ragweed
Assay type: in vivo
Conditions: Ambrosia artemisiifolia, pre-emergence, 240 h; Preemergence, 31 g ai/ha; 0 to 100 scale (0 no effect, 100 complete control); read-out: Plant response rating, Ragweed
In short: as §1

SMILES	pest or weed control at 31 g/ha [%]
N#Cc1cccc(Oc2ncc(F)cn2)c1OCC(F)(F)F [Compound 41]	0
N#Cc1cccc(Oc2ncc(Cl)cn2)c1OCC(F)(F)F [Compound 1]	0

Same assay, conditions: Ambrosia artemisiifolia, pre-emergence, 240 h; Preemergence, 125 g ai/ha; 0 to 100 scale (0 no effect, 100 complete control); read-out: Plant response rating, Ragweed

SMILES	pest or weed control at 125 g/ha [%]
N#Cc1cccc(Oc2ncc(F)cn2)c1OCC(F)(F)F [Compound 41]	20
N#Cc1cccc(Oc2ncc(Cl)cn2)c1OCC(F)(F)F [Compound 1]	100

Tested on: barnyardgrass (Echinochloa crus-galli)
Test: Test A preemergence, barnyardgrass
Assay type: in vivo
Conditions: Echinochloa crus-galli, pre-emergence, 240 h; Preemergence, 31 g ai/ha; 0 to 100 scale (0 no effect, 100 complete control); read-out: Plant response rating, Barnyardgrass
In short: as §1

SMILES	pest or weed control at 31 g/ha [%]
N#Cc1cccc(Oc2ncc(F)cn2)c1OCC(F)(F)F [Compound 41]	0
N#Cc1cccc(Oc2ncc(Cl)cn2)c1OCC(F)(F)F [Compound 1]	10

Same assay, conditions: Echinochloa crus-galli, pre-emergence, 240 h; Preemergence, 125 g ai/ha; 0 to 100 scale (0 no effect, 100 complete control); read-out: Plant response rating, Barnyardgrass

SMILES	pest or weed control at 125 g/ha [%]
N#Cc1cccc(Oc2ncc(F)cn2)c1OCC(F)(F)F [Compound 41]	40
N#Cc1cccc(Oc2ncc(Cl)cn2)c1OCC(F)(F)F [Compound 1]	80

Tested on: corn (Zea mays)
Test: Test A postemergence, corn
Assay type: in vivo
Conditions: Zea mays, post-emergence, 240 h; 31 g ai/ha, postemergence; 0 to 100 scale, 0 is no effect, 100 is complete control; approximately 10 days
In short: as §1

SMILES	Corn plant response rating (crop injury, 0 = no effect, 100 = complete kill) at 31 g/ha [%]
N#Cc1cccc(Oc2ncc(F)cn2)c1OCC(F)(F)F [Compound 41]	0
N#Cc1cccc(Oc2ncc(Cl)cn2)c1OCC(F)(F)F [Compound 1]	10

Same assay, conditions: Zea mays, post-emergence, 240 h; 125 g ai/ha, postemergence; 0 to 100 scale, 0 is no effect, 100 is complete control; approximately 10 days

SMILES	Corn plant response rating (crop injury, 0 = no effect, 100 = complete kill) at 125 g/ha [%]
N#Cc1cccc(Oc2ncc(F)cn2)c1OCC(F)(F)F [Compound 41]	10
N#Cc1cccc(Oc2ncc(Cl)cn2)c1OCC(F)(F)F [Compound 1]	10

Tested on: foxtail, giant (giant foxtail, Setaria faberii)
Test: Test A preemergence, giant foxtail
Assay type: in vivo
Conditions: Setaria faberi, pre-emergence, 240 h; Preemergence, 31 g ai/ha; 0 to 100 scale (0 no effect, 100 complete control); read-out: Plant response rating, Foxtail, Giant
In short: as §1

SMILES	pest or weed control at 31 g/ha [%]
N#Cc1cccc(Oc2ncc(F)cn2)c1OCC(F)(F)F [Compound 41]	20
N#Cc1cccc(Oc2ncc(Cl)cn2)c1OCC(F)(F)F [Compound 1]	60

Same assay, conditions: Setaria faberi, pre-emergence, 240 h; Preemergence, 125 g ai/ha; 0 to 100 scale (0 no effect, 100 complete control); read-out: Plant response rating, Foxtail, Giant

SMILES	pest or weed control at 125 g/ha [%]
N#Cc1cccc(Oc2ncc(F)cn2)c1OCC(F)(F)F [Compound 41]	80
N#Cc1cccc(Oc2ncc(Cl)cn2)c1OCC(F)(F)F [Compound 1]	100

Tested on: blackgrass (Alopecurus myosuroides)
Test: Test A postemergence, blackgrass
Assay type: in vivo
Conditions: Alopecurus myosuroides, post-emergence, 240 h; 31 g ai/ha, postemergence; 0 to 100 scale, 0 is no effect, 100 is complete control; approximately 10 days; read-out: Plant response rating, Blackgrass
In short: as §1

SMILES	pest or weed control at 31 g/ha [%]
N#Cc1cccc(Oc2ncc(F)cn2)c1OCC(F)(F)F [Compound 41]	0
N#Cc1cccc(Oc2ncc(Cl)cn2)c1OCC(F)(F)F [Compound 1]	0

Same assay, conditions: Alopecurus myosuroides, post-emergence, 240 h; 125 g ai/ha, postemergence; 0 to 100 scale, 0 is no effect, 100 is complete control; approximately 10 days; read-out: Plant response rating, Blackgrass

SMILES	pest or weed control at 125 g/ha [%]
N#Cc1cccc(Oc2ncc(F)cn2)c1OCC(F)(F)F [Compound 41]	10
N#Cc1cccc(Oc2ncc(Cl)cn2)c1OCC(F)(F)F [Compound 1]	20

Tested on: ryegrass, Italian (Italian ryegrass, Lolium multiflorum)
Test: Test A preemergence, Italian ryegrass
Assay type: in vivo
Conditions: Lolium multiflorum, pre-emergence, 240 h; Preemergence, 31 g ai/ha; 0 to 100 scale (0 no effect, 100 complete control); read-out: Plant response rating, Ryegrass, Italian
In short: as §1

SMILES	pest or weed control at 31 g/ha [%]
N#Cc1cccc(Oc2ncc(F)cn2)c1OCC(F)(F)F [Compound 41]	0
N#Cc1cccc(Oc2ncc(Cl)cn2)c1OCC(F)(F)F [Compound 1]	0

Same assay, conditions: Lolium multiflorum, pre-emergence, 240 h; Preemergence, 125 g ai/ha; 0 to 100 scale (0 no effect, 100 complete control); read-out: Plant response rating, Ryegrass, Italian

SMILES	pest or weed control at 125 g/ha [%]
N#Cc1cccc(Oc2ncc(F)cn2)c1OCC(F)(F)F [Compound 41]	10
N#Cc1cccc(Oc2ncc(Cl)cn2)c1OCC(F)(F)F [Compound 1]	10

Tested on: wheat (Triticum aestivum)
Test: Test A postemergence, wheat
Assay type: in vivo
Conditions: Triticum aestivum, post-emergence, 240 h; 31 g ai/ha, postemergence; 0 to 100 scale, 0 is no effect, 100 is complete control; approximately 10 days; read-out: Plant response rating, Wheat
In short: as §1

SMILES	plant injury at 31 g/ha [%]
N#Cc1cccc(Oc2ncc(F)cn2)c1OCC(F)(F)F [Compound 41]	0
N#Cc1cccc(Oc2ncc(Cl)cn2)c1OCC(F)(F)F [Compound 1]	0

Same assay, conditions: Triticum aestivum, post-emergence, 240 h; 125 g ai/ha, postemergence; 0 to 100 scale, 0 is no effect, 100 is complete control; approximately 10 days; read-out: Plant response rating, Wheat

SMILES	plant injury at 125 g/ha [%]
N#Cc1cccc(Oc2ncc(F)cn2)c1OCC(F)(F)F [Compound 41]	0
N#Cc1cccc(Oc2ncc(Cl)cn2)c1OCC(F)(F)F [Compound 1]	0
